According to patent US20250122174A1 (Shenzhen Yuanli Shenwan Innovative Medicine Co., Ltd., priority 2022, published 2025):
Where a name gives a salt, the structure may show the parent alone.

molecular target: HPK1 (Homo sapiens (Human), UniProt Q92918); test: HPK1 Inhibition Assay (ADP-Glo kinase assay); type: biochemical; conditions: ATP 10 μM
In short: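 ADP-Glo luminescence read-out after 1 h room-temperature kinase reaction with 10 μM ATP and 0.1 μg/ml MBP. Recombinant human HPK1 at 7.5 ng/μl; buffer 40 mM Tris pH 7.5, 20 mM MgCl2. Compounds serially diluted 5-fold over 10 points from 10 mM DMSO stock.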

HPK1, sequence (Q92918 1-346 limits assumed): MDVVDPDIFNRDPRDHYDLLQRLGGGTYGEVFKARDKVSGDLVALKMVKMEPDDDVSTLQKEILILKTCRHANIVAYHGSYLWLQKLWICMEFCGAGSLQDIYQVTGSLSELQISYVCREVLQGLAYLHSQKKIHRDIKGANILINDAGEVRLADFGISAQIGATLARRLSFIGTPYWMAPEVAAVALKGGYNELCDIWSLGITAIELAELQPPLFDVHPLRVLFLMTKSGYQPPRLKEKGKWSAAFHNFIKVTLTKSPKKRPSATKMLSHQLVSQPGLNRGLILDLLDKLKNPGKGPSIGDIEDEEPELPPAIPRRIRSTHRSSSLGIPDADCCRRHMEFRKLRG

SMILES	IC50
Cc1nc2c(N3CC[C@H](N)C3)c(NC(=O)c3ccnn(-c4c(Cl)cccc4Cl)c3=O)ccc2n1C [Example 49, N-{4-[(35)-3-aminopyrrolidin-1-yl]-1,2-dimethyl-1,3-benzodiazol-5-yl}-2-(2,6-dichlorophenyl)-3-oxopyridazine-4-carboxamide hydrochloride]	< 100 nM
Cc1nc2c(N3CC[C@H](N)C3)c(NC(=O)c3ccc(=O)n(-c4c(F)cccc4F)n3)ccc2n1C1CCOCC1 [Example 88, (S)-N-(4-(3-aminopyrrolidin-1-yl)-2-methyl-1-(tetrahydro-2H-pyran-4-yl)-1H-benzo[d]imidazol-5-yl)-1-(2,6-difluorophenyl)-6-oxo-1,6-dihydropyridazine-3-carboxamide]	< 100 nM
CC(C)n1cc2c(N3CC[C@@](C)(N)C3)c(NC(=O)c3ccc(=O)n(-c4c(F)cccc4F)n3)ccc2n1 [Example 220, (R)—N-(4-(3-amino-3-methylpyrrolidin-1-yl)-2-isopropyl-2H-indazol-5-yl)-1-(2,6-difluorophenyl)-6-oxo-1,6-dihydropyridazine-3-carboxamide]	< 100 nM
CC1(C)CN(c2c(NC(=O)c3ccc(=O)n(-c4c(F)cccc4F)n3)ccc3nn(C(C)(C)C)cc23)C[C@@H]1N [Example 236, (R)-N-(4-(4-amino-3,3-dimethylpyrrolidin-1-yl)-2-(tert-butyl)-2H-indazol-5-yl)-1-(2,6-difluorophenyl)-6-oxo-1,6-dihydropyridazine-3-carboxamide]	< 100 nM
CC(C)c1nc2c(N3CC[C@@](C)(O)C3)c(NC(=O)c3ccc(=O)n(-c4c(F)cccc4F)n3)ccc2n1C [Example 140, (R)-1-(2,6-difluorophenyl)-N-(4-(3-hydroxy-3-methylpyrrolidin-1-yl)-2-isopropyl-1-methyl-1H-benzo[d]imidazol-5-yl)-6-oxo-1,6-dihydropyridazine-3-carboxamide]	< 100 nM
COc1cccc(F)c1-c1cccc(C(=O)Nc2ccc3c(nc(C)n3C)c2N2CC[C@H](N)C2)[n+]1[O-] [Example 62, 2-((4-((S)-3-aminopyrrolidin-1-yl)-1,2-dimethyl-1H-benzo[d]imidazol-5-yl)carbamoyl)-6-(2-fluoro-6-methoxyphenyl)pyridine 1-oxide]	100 to 1000 nM
Cn1c(C(F)(F)F)nc2c(N3CC[C@H](N)C3)c(NC(=O)c3ccnn(-c4c(F)cccc4F)c3=O)ccc21 [Example 39, (S)—N-(4-(3-aminopyrrolidin-1-yl)-1-methyl-2-(trifluoromethyl)-1H-benzo[d]imidazol-5-yl)-2-(2,6-difluorophenyl)-3-oxo-2,3-dihydropyridazine-4-carboxamide]	100 to 1000 nM
CC(C)c1nc2c(N3CC4C(N)C4C3)c(NC(=O)c3ccc(=O)n(-c4c(F)cccc4F)n3)ccc2n1C [Example 119, N-(4-((1R,5S,6r)-6-amino-3-azabicyclo[3.1.0]hexan-3-yl)-2-isopropyl-1-methyl-1H-benzo[d]imidazol-5-yl)-1-(2,6-difluorophenyl)-6-oxo-1,6-dihydropyridazine-3-carboxamide]	< 100 nM
CC(C)c1nc2c(N3CCC(N)CC3)c(NC(=O)c3ccc(=O)n(-c4c(F)cccc4F)n3)ccc2n1C [Example 133, N-(4-(4-aminopiperidin-1-yl)-2-isopropyl-1-methyl-1H-benzo[d]imidazol-5-yl)-1-(2,6-difluorophenyl)-6-oxo-1,6-dihydropyridazine-3-carboxamide]	< 100 nM
Cc1nc2c(N3C[C@H](N)C(F)(F)C3)c(NC(=O)c3ccc(=O)n(-c4c(F)cccc4F)n3)ccc2n1C [Example 94, (S)-N-(4-(4-amino-3,3-difluoropyrrolidin-1-yl)-1,2-dimethyl-1H-benzo[d]imidazol-5-yl)-1-(2,6-difluorophenyl)-6-oxo-1,6-dihydropyridazine-3-carboxamide]	< 100 nM
Cc1nn(C(C)C)c2c(F)cc(NC(=O)c3ccc(=O)n(-c4c(F)cccc4F)n3)c(N3C[C@@H](C)[C@@H](N)C3)c12 [Example 218, N-(4-((3R,4R)-3-amino-4-methylpyrrolidin-1-yl)-7-fluoro-1-isopropyl-3-methyl-1H-indazol-5-yl)-1-(2,6-difluorophenyl)-6-oxo-1,6-dihydropyridazine-3-carboxamide]	< 100 nM
C[C@H]1CN(c2c(NC(=O)c3ccc(=O)n(-c4c(F)cccc4F)n3)ccc3c2cnn3C)C[C@@H]1N [Example 173, N-(4-((3R,4S)-3-amino-4-methylpyrrolidin-1-yl)-1-methyl-1H-indazol-5-yl)-1-(2,6-difluorophenyl)-6-oxo-1,6-dihydropyridazine-3-carboxamide]	< 100 nM
Cn1cc2c(N3CC[C@@H](N)C3)c(NC(=O)c3ccc(=O)n(-c4c(F)cccc4F)n3)ccc2n1 [Example 175, (R)—N-(4-(3-aminopyrrolidin-1-yl)-2-methyl-2H-indazol-5-yl)-1-(2,6-difluorophenyl)-6-oxo-1,6-dihydropyridazine-3-carboxamide]	< 100 nM
CC(C)n1ncc2c(N3C[C@@H](N)C[C@H]3CO)c(NC(=O)c3ccc(=O)n(-c4c(F)cccc4F)n3)ccc21 [Example 212, N-(4-((25,4S)-4-amino-2-(hydroxymethyl)pyrrolidin-1-yl)-1-isopropyl-1H-indazol-5-yl)-1-(2,6-difluorophenyl)-6-oxo-1,6-dihydropyridazine-3-carboxamide]	< 100 nM
Cn1ncc2c(N3C[C@H](N)C4(CC4)C3)c(NC(=O)c3ccc(=O)n(-c4c(F)cccc4F)n3)ccc21 [Example 174, (R)-N-(4-(7-amino-5-azaspiro[2.4]heptan-5-yl)-1-methyl-1H-indazol-5-yl)-1-(2,6-difluorophenyl)-6-oxo-1,6-dihydropyridazine-3-carboxamide]	< 100 nM

Other lines, results leading:

IC50	SMILES
< 100 nM	N[C@@H]1CCN(c2c(NC(=O)c3ccc(=O)n(-c4c(F)cccc4F)n3)ccc3nn(CC4CC4)cc23)C1 [Example 330, (R)-N-(4-(3-aminopyrrolidin-1-yl)-2-(cyclopropylmethyl)-2H-indazol-5-yl)-1-(2,6-difluorophenyl)-6-oxo-1,6-dihydropyridazine-3-carboxamide]
< 100 nM	N[C@@H]1CCN(c2c(NC(=O)c3ccc(=O)n(-c4c(F)cccc4F)n3)ccc3c2cnn3C2CCOCC2)C1 [Example 274, N-[4-[(3R)-3-aminopyrrolidin-1-yl]-1-tetrahydropyran-4-yl-indazol-5-yl]-1-(2,6-difluorophenyl)-6-oxo-pyridazine-3-carboxamid]
< 100 nM	N#Cc1ccncc1-c1ccc(NC(=O)c2ccc(=O)n(-c3c(F)cccc3F)n2)c(N2CCC(NCCO)CC2)c1 [Example 360, N-(4-(4-cyanopyridin-3-yl)-2-(4-((2-hydroxyethyl)amino)piperidin-1-yl)phenyl)-1-(2,6-difluorophenyl)-6-oxo-1,6-dihydropyridazine-3-carboxamide]
< 100 nM	CC1(C)CN(c2c(NC(=O)c3ccc(=O)n(-c4c(F)cccc4F)n3)ccc3nn([C@@H]4CCOC4)cc23)C[C@@H]1N [Example 322, N-(4-((R)-4-amino-3,3-dimethylpyrrolidin-1-yl)-2-((R)-tetrahydrofuran-3-yl)-2H-indazol-5-yl)-1-(2,6-difluorophenyl)-6-oxo-1,6-dihydropyridazine-3-carboxamide]
< 100 nM	C[C@]1(O)CCN(c2cc(-c3cnccc3C#N)ccc2NC(=O)c2ccc(=O)n(-c3c(F)cccc3F)n2)C1 (single isomer, unassigned) [Example 354]
< 100 nM	CC1(C)CN(c2c(NC(=O)c3ccc(=O)n(-c4c(F)cccc4F)n3)ccc3nn(C4CC4)cc23)C[C@H]1N [Example 335, (S)-N-(4-(4-amino-3,3-dimethylpyrrolidin-1-yl)-2-cyclopropyl-2H-indazol-5-yl)-1-(2,6-difluorophenyl)-6-oxo-1,6-dihydropyridazine-3-carboxamide]
< 100 nM	[2H]C([2H])([2H])C([2H])(n1ncc2c(N3C[C@H](N)C4(CC4)C3)c(NC(=O)c3ccc(=O)n(-c4c(F)cccc4F)n3)ccc21)C([2H])([2H])[2H] [Example 276, (R)-N-(4-(7-amino-5-azaspiro[2.4]heptan-5-yl)-1-(propan-2-yl-d7)-1H-indazol-5-yl)-1-(2,6-difluorophenyl)-6-oxo-1,6-dihydropyridazine-3-carboxamide]
< 100 nM	C[C@H]1CN(c2c(NC(=O)c3ccc(=O)n(-c4c(F)cccc4F)n3)ccc3nn(C4(C)CC4)cc23)C[C@@H]1N [Example 310, N-(4-((3R,4S)-3-amino-4-methylpyrrolidin-1-yl)-2-(1-methylcyclopropyl)-2H-indazol-5-yl)-1-(2,6-difluorophenyl)-6-oxo-1,6-dihydropyridazine-3-carboxamide]
< 100 nM	C[C@@H]1CN(c2c(NC(=O)c3ccc(=O)n(-c4c(F)cccc4F)n3)ccc3c2cnn3C(C)(C)C)C[C@@H]1N [Example 303, N-(4-((3R,4R)-3-amino-4-methylpyrrolidin-1-yl)-1-(tert-butyl)-1H-indazol-5-yl)-1-(2,6-difluorophenyl)-6-oxo-1,6-dihydropyridazine-3-carboxamide]
< 100 nM	C[C@H]1CN(c2c(NC(=O)c3ccc(=O)n(-c4c(F)cccc4F)n3)ccc3nn(C45CC(C4)C5)cc23)C[C@@H]1N [Example 320, N-(4-((3R,4S)-3-amino-4-methylpyrrolidin-1-yl)-2-(bicyclo[1.1.1]pentan-1-yl)-2H-indazol-5-yl)-1-(2,6-difluorophenyl)-6-oxo-1,6-dihydropyridazine-3-carboxamide]
< 100 nM	C[C@]1(N)CCN(c2cc(-c3cnccc3C#N)ccc2NC(=O)c2ccc(=O)n(-c3c(F)cccc3F)n2)C1 [Example 348, (S)-N-(2-(3-amino-3-methylpyrrolidin-1-yl)-4-(4-cyanopyridin-3-yl)phenyl)-1-(2,6-difluorophenyl)-6-oxo-1,6-dihydropyridazine-3-carboxamide]
< 100 nM	C[C@@H]1CN(c2c(NC(=O)c3ccc(=O)n(-c4c(F)cccc4F)n3)ccc3c2cnn3C2CCC2)C[C@@H]1N [Example 296, N-(4-((3R,4R)-3-amino-4-methylpyrrolidin-1-yl)-1-cyclobutyl-1H-indazol-5-yl)-1-(2,6-difluorophenyl)-6-oxo-1,6-dihydropyridazine-3-carboxamide]
